Experimental data taken from PubChem BioAssay AID1933 (Broad Institute, 2009).
Records with an inconclusive call do not appear. The source made the active and inactive calls. The rule behind the calls is not given here.

Test system: BJ-TERT fibroblast viability, ATP luminescence
Assay: BJ-TERT fibroblast viability loss – cell-based, RAS-independent, luminescence, dose response (AID 1933)

| SMILES | EC50 |
| --- | --- |
| COc1cc2c(c(OC)c1OC)-c1ccc(O)c(=O)cc1C(NC(C)=O)CC2 (configuration not stated) | < 0.12 µM |
| CCSc1nc2ccccc2n1C(=O)/C=C/c1ccc(OC)c(OC)c1 | > 15 µM (inactive) |
